# Source: patent US20160289186A1, “FLUOROMETHYL-SUBSTITUTED PYRROLE CA[…]” (Grunenthal GmbH, priority 2013, published 2016)
# Molecular target: T1, Human CaV2.2 channels (Homo sapiens, UniProt Q00975)
# T1 construct: expressed in transfected cells; host or cells: HEK293
# Test: Fluorescent (FLIPR) assay for CaV2.2 channels using potassium depolarization to induce channel opening
# Assay type: cell-based
# Conditions: 3 μM compound; 30 mM KCl assay buffer (inactivated channel state); HEK293 cells stably expressing human CaV2.2; read-out: Activity Category: %-Inhib (CaV2.2) @3 μM @30 mM KCl
# In short: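 HEK293 cells stably co-expressing human CaV2.2 with α2δ and β subunits plus Kir2.3, Fluo-4 loaded; compounds preincubated 15 min at 25 °C in 1 mM or 30 mM KCl buffer (inactivated state), pH 7.4. Depolarized by KCl addition; baseline-normalized peak fluorescence (ex 480/em 535 nm) gave inhibition.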
# T1 sequence (Q00975 whole entry): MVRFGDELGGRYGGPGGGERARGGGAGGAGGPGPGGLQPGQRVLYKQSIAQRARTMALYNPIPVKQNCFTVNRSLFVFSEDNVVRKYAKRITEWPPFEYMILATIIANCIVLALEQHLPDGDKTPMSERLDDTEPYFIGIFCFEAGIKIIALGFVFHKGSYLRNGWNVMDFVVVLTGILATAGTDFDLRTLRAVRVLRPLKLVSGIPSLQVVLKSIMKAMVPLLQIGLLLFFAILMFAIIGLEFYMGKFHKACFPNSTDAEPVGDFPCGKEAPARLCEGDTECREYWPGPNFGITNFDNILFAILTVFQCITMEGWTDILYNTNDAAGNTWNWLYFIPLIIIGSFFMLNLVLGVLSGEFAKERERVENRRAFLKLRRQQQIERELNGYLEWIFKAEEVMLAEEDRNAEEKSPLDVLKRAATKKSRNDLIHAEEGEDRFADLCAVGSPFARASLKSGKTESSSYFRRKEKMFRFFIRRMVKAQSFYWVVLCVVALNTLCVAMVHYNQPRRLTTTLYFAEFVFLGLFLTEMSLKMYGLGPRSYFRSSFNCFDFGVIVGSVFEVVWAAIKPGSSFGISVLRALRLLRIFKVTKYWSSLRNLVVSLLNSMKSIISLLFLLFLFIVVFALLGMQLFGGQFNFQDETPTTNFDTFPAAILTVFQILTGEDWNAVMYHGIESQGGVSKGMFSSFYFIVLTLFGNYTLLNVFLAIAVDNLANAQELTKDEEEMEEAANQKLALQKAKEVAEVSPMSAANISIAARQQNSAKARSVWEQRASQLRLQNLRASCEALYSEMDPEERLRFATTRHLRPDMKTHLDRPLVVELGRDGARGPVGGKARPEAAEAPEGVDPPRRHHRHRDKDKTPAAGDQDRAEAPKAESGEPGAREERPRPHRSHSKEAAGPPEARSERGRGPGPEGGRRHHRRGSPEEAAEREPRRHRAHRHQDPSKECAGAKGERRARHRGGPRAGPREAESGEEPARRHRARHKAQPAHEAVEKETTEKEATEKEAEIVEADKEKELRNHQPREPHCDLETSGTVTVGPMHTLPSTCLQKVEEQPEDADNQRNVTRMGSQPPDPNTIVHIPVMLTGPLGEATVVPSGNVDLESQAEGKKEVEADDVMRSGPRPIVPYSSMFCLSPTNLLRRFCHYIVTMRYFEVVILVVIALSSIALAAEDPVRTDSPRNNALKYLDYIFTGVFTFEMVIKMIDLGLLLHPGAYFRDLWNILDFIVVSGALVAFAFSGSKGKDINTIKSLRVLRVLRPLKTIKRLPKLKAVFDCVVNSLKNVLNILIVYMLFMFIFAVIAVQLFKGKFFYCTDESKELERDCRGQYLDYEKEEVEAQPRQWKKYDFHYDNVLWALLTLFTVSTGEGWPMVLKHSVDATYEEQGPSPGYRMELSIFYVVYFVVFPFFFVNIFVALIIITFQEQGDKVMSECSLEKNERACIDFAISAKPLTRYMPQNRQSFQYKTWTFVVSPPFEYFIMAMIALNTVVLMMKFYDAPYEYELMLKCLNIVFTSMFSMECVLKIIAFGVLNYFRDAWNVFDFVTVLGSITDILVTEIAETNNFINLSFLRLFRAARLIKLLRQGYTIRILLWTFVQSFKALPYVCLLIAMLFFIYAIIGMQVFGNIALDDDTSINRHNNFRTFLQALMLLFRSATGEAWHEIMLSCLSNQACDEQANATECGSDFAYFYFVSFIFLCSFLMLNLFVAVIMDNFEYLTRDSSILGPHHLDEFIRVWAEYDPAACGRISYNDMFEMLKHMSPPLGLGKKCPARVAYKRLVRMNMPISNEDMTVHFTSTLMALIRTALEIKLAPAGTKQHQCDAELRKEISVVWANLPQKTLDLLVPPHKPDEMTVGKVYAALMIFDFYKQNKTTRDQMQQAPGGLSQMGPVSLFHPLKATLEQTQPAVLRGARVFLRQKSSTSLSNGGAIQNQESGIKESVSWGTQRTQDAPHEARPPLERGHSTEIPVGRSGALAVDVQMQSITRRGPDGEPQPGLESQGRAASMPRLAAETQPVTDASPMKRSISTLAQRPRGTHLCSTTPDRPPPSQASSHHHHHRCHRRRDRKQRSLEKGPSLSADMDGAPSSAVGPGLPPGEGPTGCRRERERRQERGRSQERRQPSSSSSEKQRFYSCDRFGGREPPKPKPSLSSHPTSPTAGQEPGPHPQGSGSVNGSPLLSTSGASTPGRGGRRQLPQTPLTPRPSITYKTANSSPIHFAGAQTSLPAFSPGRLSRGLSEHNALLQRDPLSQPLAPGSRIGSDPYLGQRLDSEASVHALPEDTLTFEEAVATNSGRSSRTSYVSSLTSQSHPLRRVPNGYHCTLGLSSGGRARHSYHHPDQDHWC
# T1 sequence (P54284 whole entry, further chain): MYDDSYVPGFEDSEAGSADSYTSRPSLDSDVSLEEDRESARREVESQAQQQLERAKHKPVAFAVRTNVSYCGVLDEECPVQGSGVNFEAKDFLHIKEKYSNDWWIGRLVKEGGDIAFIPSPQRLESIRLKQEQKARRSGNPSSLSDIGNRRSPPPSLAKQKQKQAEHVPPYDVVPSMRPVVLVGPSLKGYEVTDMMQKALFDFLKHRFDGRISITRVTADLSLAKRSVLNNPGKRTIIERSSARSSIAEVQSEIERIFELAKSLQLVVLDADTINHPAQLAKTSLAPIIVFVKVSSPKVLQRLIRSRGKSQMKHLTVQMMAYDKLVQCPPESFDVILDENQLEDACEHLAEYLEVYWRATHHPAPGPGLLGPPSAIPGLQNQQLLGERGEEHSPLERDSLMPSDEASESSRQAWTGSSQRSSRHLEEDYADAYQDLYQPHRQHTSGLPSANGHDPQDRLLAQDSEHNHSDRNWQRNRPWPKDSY
# T1 sequence (P54289 25-1103, further chain): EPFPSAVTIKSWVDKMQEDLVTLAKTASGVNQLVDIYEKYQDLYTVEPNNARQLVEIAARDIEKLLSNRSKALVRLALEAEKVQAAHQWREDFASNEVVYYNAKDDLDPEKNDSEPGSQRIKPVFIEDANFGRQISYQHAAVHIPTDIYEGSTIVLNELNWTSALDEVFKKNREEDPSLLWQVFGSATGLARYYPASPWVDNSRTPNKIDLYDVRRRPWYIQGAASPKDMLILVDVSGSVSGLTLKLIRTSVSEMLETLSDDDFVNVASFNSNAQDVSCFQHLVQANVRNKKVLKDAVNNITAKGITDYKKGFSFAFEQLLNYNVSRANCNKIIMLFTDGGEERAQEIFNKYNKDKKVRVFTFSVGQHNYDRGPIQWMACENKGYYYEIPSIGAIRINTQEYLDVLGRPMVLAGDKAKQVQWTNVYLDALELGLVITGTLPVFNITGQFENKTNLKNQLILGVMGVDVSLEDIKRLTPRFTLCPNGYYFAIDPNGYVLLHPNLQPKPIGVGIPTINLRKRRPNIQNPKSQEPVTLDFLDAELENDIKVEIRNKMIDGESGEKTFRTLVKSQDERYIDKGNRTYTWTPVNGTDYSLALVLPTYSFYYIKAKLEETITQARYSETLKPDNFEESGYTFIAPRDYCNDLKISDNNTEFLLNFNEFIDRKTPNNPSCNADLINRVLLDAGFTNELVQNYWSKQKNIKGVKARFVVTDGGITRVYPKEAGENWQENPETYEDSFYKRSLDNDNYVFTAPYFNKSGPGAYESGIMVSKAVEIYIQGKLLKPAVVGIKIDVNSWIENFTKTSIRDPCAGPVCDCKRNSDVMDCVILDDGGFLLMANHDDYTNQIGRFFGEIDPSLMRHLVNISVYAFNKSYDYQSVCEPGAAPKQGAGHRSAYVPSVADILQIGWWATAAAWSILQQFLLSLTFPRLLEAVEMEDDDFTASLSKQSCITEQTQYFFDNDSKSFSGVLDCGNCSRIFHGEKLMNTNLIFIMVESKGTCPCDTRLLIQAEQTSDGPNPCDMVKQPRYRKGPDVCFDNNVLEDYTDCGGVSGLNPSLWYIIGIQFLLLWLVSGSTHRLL
row,SMILES,inhibition at 3 µM [%]
1,"Cc1cc(CN(C)C(=O)c2c(-c3ccc(Cl)cc3)c(C)c(C(F)(F)F)n2C(C)C)no1 [Example 107, 3-(4-Chlorophenyl)-1-isopropyl-N,4-dimethyl-N-[(5-methyl-isoxazol-3-yl)-methyl]-5-(trifluoromethyl)-1H-pyrrole-2-carboxylic acid amide]",> 95
2,"Cc1c(-c2ccc(Cl)cc2)c(C(=O)N(C)C(C)C)n(C(C)C)c1C(F)(F)F [Example 108, 3-(4-Chlorophenyl)-N,1-diisopropyl-N,4-dimethyl-5-(trifluoromethyl)-1H-pyrrole-2-carboxylic acid amide]",> 95
3,"Cc1c(-c2ccc(Cl)cc2)c(C(=O)N(C)C(C)C)n(CC(C)C)c1C(F)(F)F [Example 109, 3-(4-Chlorophenyl)-N-isopropyl-N,4-dimethyl-1-(2-methyl-propyl)-5-(trifluoromethyl)-1H-pyrrole-2-carboxylic acid amide]",75 to 95
4,"Cc1c(-c2ccc(Cl)cc2)c(C(=O)N(C)CCS(C)(=O)=O)n(C(C)C)c1C(F)(F)F [Example 110, 3-(4-Chlorophenyl)-1-isopropyl-N,4-dimethyl-N-(2-methylsulfonyl-ethyl)-5-(trifluoromethyl)-1H-pyrrole-2-carboxylic acid amide]",75 to 95
5,"Cc1c(-c2ccc(Cl)cc2)c(C(=O)N(C)Cc2ccnn2C)n(C(C)C)c1C(F)(F)F [Example 111, 3-(4-Chlorophenyl)-1-isopropyl-N,4-dimethyl-N-[(2-methyl-2H-pyrazol-3-yl)-methyl]-5-(trifluoromethyl)-1H-pyrrole-2-carboxylic acid amide]",75 to 95
6,"Cc1c(-c2ccc(Cl)cn2)c(C(=O)N2CCOC(C)(C)C2)n(C(C)C)c1C(F)(F)F [Example 112, [3-(5-Chloro-pyridin-2-yl)-1-isopropyl-4-methyl-5-(trifluoromethyl)-1H-pyrrol-2-yl]-(2,2-dimethyl-morpholin-4-yl)-methanone]",40 to 75
7,"Cc1cc(CN(C)C(=O)c2c(-c3ccc(Cl)cn3)c(C)c(C(F)(F)F)n2C(C)C)no1 [Example 113, 3-(5-Chloro-pyridin-2-yl)-1-isopropyl-N,4-dimethyl-N-[(5-methyl-isoxazol-3-yl)-methyl]-5-(trifluoromethyl)-1H-pyrrole-2-carboxylic acid amide]",75 to 95
8,"Cc1c(-c2ccc(Cl)cn2)c(C(=O)N(C)Cc2ccnn2C)n(C(C)C)c1C(F)(F)F [Example 114, 3-(5-Chloro-pyridin-2-yl)-1-isopropyl-N,4-dimethyl-N-[(2-methyl-2H-pyrazol-3-yl)-methyl]-5-(trifluoromethyl)-1H-pyrrole-2-carboxylic acid amide]",40 to 75
9,"Cc1c(-c2ccc(Cl)cc2)c(C(=O)N(C)C2CCNC2=O)n(C(C)C)c1C(F)(F)F (stereo not drawn) [Example 115, 3-(4-Chlorophenyl)-1-isopropyl-N,4-dimethyl-N-(2-oxo-pyrrolidin-3-yl)-5-(trifluoromethyl)-1H-pyrrole-2-carboxylic acid amide]",75 to 95
10,"Cc1c(-c2ccc(Cl)cn2)c(C(=O)N(C)CC(C)(C)C(N)=O)n(C(C)C)c1C(F)(F)F [Example 116, N-(2-Carbamoyl-2-methyl-propyl)-3-(5-chloro-pyridin-2-yl)-1-isopropyl-N,4-dimethyl-5-(trifluoromethyl)-1H-pyrrole-2-carboxylic acid amide]",40 to 75
11,"Cc1c(-c2ccc(Cl)cn2)c(C(=O)N(C)CC(C)(C)C#N)n(C(C)C)c1C(F)(F)F [Example 117, 3-(5-Chloro-pyridin-2-yl)-N-(2-cyano-2-methyl-propyl)-1-isopropyl-N,4-dimethyl-5-(trifluoromethyl)-1H-pyrrole-2-carboxylic acid amide]",75 to 95
12,"Cc1c(-c2ccc(Cl)cn2)c(C(=O)N(C)CCS(C)(=O)=O)n(C(C)C)c1C(F)(F)F [Example 118, 3-(5-Chloro-pyridin-2-yl)-1-isopropyl-N,4-dimethyl-N-(2-methylsulfonyl-ethyl)-5-(trifluoromethyl)-1H-pyrrole-2-carboxylic acid amide]",40 to 75
13,"Cc1c(-c2ccc(Cl)cn2)c(C(=O)N(C)C2CCNC2=O)n(C(C)C)c1C(F)(F)F (stereo not drawn) [Example 119, 3-(5-Chloro-pyridin-2-yl)-1-isopropyl-N,4-dimethyl-N-(2-oxo-pyrrolidin-3-yl)-5-(trifluoromethyl)-1H-pyrrole-2-carboxylic acid amide]",40 to 75
14,"Cc1c(-c2ccc(Cl)cn2)c(C(=O)N(C)C(C)C)n(C(C)C)c1C(F)(F)F [Example 120, 3-(5-Chloro-pyridin-2-yl)-N,1-diisopropyl-N,4-dimethyl-5-(trifluoromethyl)-1H-pyrrole-2-carboxylic acid amide]",75 to 95
15,"Cc1c(-c2ncc(Cl)cn2)c(C(=O)N2CCOC(C)(C)C2)n(C(C)C)c1C(F)(F)F [Example 121, [3-(5-Chloro-pyrimidin-2-yl)-1-isopropyl-4-methyl-5-(trifluoromethyl)-1H-pyrrol-2-yl]-(2,2-dimethyl-morpholin-4-yl)-methanone]",40 to 75
16,"Cc1c(-c2ncc(Cl)cn2)c(C(=O)N(C)Cc2ccnn2C)n(C(C)C)c1C(F)(F)F [Example 122, 3-(5-Chloro-pyrimidin-2-yl)-1-isopropyl-N,4-dimethyl-N-[(2-methyl-2H-pyrazol-3-yl)-methyl]-5-(trifluoromethyl)-1H-pyrrole-2-carboxylic acid amide]",40 to 75
17,"Cc1cc(CN(C)C(=O)c2c(-c3ncc(Cl)cn3)c(C)c(C(F)(F)F)n2C(C)C)no1 [Example 123, 3-(5-Chloro-pyrimidin-2-yl)-1-isopropyl-N,4-dimethyl-N-[(5-methyl-isoxazol-3-yl)-methyl]-5-(trifluoromethyl)-1H-pyrrole-2-carboxylic acid amide]",75 to 95
18,"Cc1c(-c2ncc(Cl)cn2)c(C(=O)N(C)CC(C)(C)C#N)n(C(C)C)c1C(F)(F)F [Example 126, 3-(5-Chloro-pyrimidin-2-yl)-N-(2-cyano-2-methyl-propyl)-1-isopropyl-N,4-dimethyl-5-(trifluoromethyl)-1H-pyrrole-2-carboxylic acid amide]",40 to 75
19,"Cc1c(-c2ncc(Cl)cn2)c(C(=O)N(C)CCS(C)(=O)=O)n(C(C)C)c1C(F)(F)F [Example 127, 3-(5-Chloro-pyrimidin-2-yl)-1-isopropyl-N,4-dimethyl-N-(2-methylsulfonyl-ethyl)-5-(trifluoromethyl)-1H-pyrrole-2-carboxylic acid amide]",30 to 40
20,"Cc1c(-c2ncc(Cl)cn2)c(C(=O)N(C)C(C)C)n(C(C)C)c1C(F)(F)F [Example 128, 3-(5-Chloro-pyrimidin-2-yl)-N,1-diisopropyl-N,4-dimethyl-5-(trifluoromethyl)-1H-pyrrole-2-carboxylic acid amide]",40 to 75
21,"Cc1c(-c2ccc(Cl)cn2)c(C(=O)N2CCN(C(=O)NC(C)(C)C)CC2)n(C(C)C)c1C(F)(F)F [Example 129, N-tert-Butyl-4-[3-(5-chloro-pyridin-2-yl)-1-isopropyl-4-methyl-5-(trifluoromethyl)-1H-pyrrole-2-carbonyl]-piperazine-1-carboxylic acid amide]",75 to 95
22,"Cc1c(-c2ccc(Cl)cn2)c(C(=O)N2CC[S+]([O-])C(C)(C)C2)n(C(C)C)c1C(F)(F)F (stereo not drawn) [Example 130, [3-(5-Chloro-pyridin-2-yl)-1-isopropyl-4-methyl-5-(trifluoromethyl)-1H-pyrrol-2-yl]-(2,2-dimethyl-1-oxo-[1,4]thiazinan-4-yl)-methanone]",40 to 75
23,"Cc1c(-c2ccc(Cl)cc2)c(C(=O)N2CCN(C(=O)NC(C)(C)C)CC2)n(C(C)C)c1C(F)(F)F [Example 131, N-tert-Butyl-4-[3-(4-chlorophenyl)-1-isopropyl-4-methyl-5-(trifluoromethyl)-1H-pyrrole-2-carbonyl]-piperazine-1-carboxylic acid amide]",75 to 95
24,"Cc1c(-c2ccc(Cl)cc2)c(C(=O)N(C)C(CO)CC(C)C)n(C(C)C)c1C(F)(F)F (stereo not drawn) [Example 132, 3-(4-Chlorophenyl)-N-[1-(hydroxymethyl)-3-methyl-butyl]-1-isopropyl-N,4-dimethyl-5-(trifluoromethyl)-1H-pyrrole-2-carboxylic acid amide]",40 to 75
25,"Cc1c(-c2ccc(Cl)cc2)c(C(=O)N(C)C(C)C(=O)NC(C)(C)C)n(C(C)C)c1C(F)(F)F (stereo not drawn) [Example 133, N-[1-(tert-Butyl-carbamoyl)-ethyl]-3-(4-chlorophenyl)-1-isopropyl-N,4-dimethyl-5-(trifluoromethyl)-1H-pyrrole-2-carboxylic acid amide]",40 to 75
26,"Cc1c(-c2ccc(Cl)cn2)c(C(=O)N(C)C2CCNCC2(C)C)n(C(C)C)c1C(F)(F)F (stereo not drawn) [Example 134, 3-(5-Chloro-pyridin-2-yl)-N-(3,3-dimethyl-piperidin-4-yl)-1-isopropyl-N,4-dimethyl-5-(trifluoromethyl)-1H-pyrrole-2-carboxylic acid amide]",40 to 75
27,"Cc1c(-c2ccc(Cl)cc2)c(C(=O)N(C)C2CCNCC2(C)C)n(C(C)C)c1C(F)(F)F (stereo not drawn) [Example 135, 3-(4-Chlorophenyl)-N-(3,3-dimethyl-piperidin-4-yl)-1-isopropyl-N,4-dimethyl-5-(trifluoromethyl)-1H-pyrrole-2-carboxylic acid amide]",40 to 75
